# Assays:
# Type in all cases: in vivo
# [1] = test system: CYPES: yellow nutsedge (Cyperus esculentus); assay: Post-emergent herbicidal test, yellow nutsedge; settings: post-emergence, 336 h, 14 days after application, read-out: Visual Growth Reduction (%) 14 Days After Application CYPES; for pest or weed control at 17.5 g/ha: 17.5 g ai/ha; for pest or weed control at 35 g/ha: 35 g ai/ha; for pest or weed control at 70 g/ha: 70 g ai/ha; for pest or weed control at 140 g/ha: 140 g ai/ha
# How it was run: (§1)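 Visual injury rating, 0 (none) to 100% (complete kill), made 14 d after treatment relative to untreated plants. Foliar track-sprayer application at 187 L/ha to plants at the 1st-2nd true leaf stage; rates were twofold serial dilutions from the highest rate down to 1/16×.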
# [2] = test system: ECHCG: barnyardgrass (Echinochloa crus-galli); assay: Post-emergent herbicidal test, barnyardgrass; settings: post-emergence, 336 h, 14 days after application, read-out: Visual Growth Reduction (%) 14 Days After Application ECHCG; for pest or weed control at 17.5 g/ha: 17.5 g ai/ha; for pest or weed control at 35 g/ha: 35 g ai/ha; for pest or weed control at 70 g/ha: 70 g ai/ha; for pest or weed control at 140 g/ha: 140 g ai/ha
# How it was run: as §1
# [3] = test system: BRSNN: oilseed rape, canola (Brassica napus); assay: Post-emergent herbicidal test, oilseed rape; settings: post-emergence, 336 h, 14 days after application, read-out: Visual Growth Reduction (%) 14 Days After Application BRSNN; for pest or weed control at 17.5 g/ha: 17.5 g ai/ha; for pest or weed control at 35 g/ha: 35 g ai/ha; for pest or weed control at 70 g/ha: 70 g ai/ha; for pest or weed control at 140 g/ha: 140 g ai/ha
# How it was run: as §1
# [4] = test system: CIRAR: Canada thistle (Cirsium arvense); assay: Post-emergent herbicidal test, Canada thistle; settings: post-emergence, 336 h, 14 days after application, read-out: Visual Growth Reduction (%) 14 Days After Application CIRAR; for pest or weed control at 17.5 g/ha: 17.5 g ai/ha; for pest or weed control at 35 g/ha: 35 g ai/ha; for pest or weed control at 70 g/ha: 70 g ai/ha; for pest or weed control at 140 g/ha: 140 g ai/ha
# How it was run: as §1
# [5] = test system: SETFA: giant foxtail (Setaria faberi); assay: Post-emergent herbicidal test, giant foxtail; settings: post-emergence, 336 h, 14 days after application, read-out: Visual Growth Reduction (%) 14 Days After Application SETFA; for pest or weed control at 17.5 g/ha: 17.5 g ai/ha; for pest or weed control at 35 g/ha: 35 g ai/ha; for pest or weed control at 70 g/ha: 70 g ai/ha; for pest or weed control at 140 g/ha: 140 g ai/ha
# How it was run: as §1
# [6] = test system: IPOHE: ivyleaf morningglory (Ipomoea hederacea); assay: Post-emergent herbicidal test, ivyleaf morningglory; settings: post-emergence, 336 h, 14 days after application, read-out: Visual Growth Reduction (%) 14 Days After Application IPOHE; for pest or weed control at 17.5 g/ha: 17.5 g ai/ha; for pest or weed control at 35 g/ha: 35 g ai/ha; for pest or weed control at 70 g/ha: 70 g ai/ha; for pest or weed control at 140 g/ha: 140 g ai/ha
# How it was run: as §1
# [7] = test system: ABUTH: velvetleaf (Abutilon theophrasti); assay: Post-emergent herbicidal test, velvetleaf; settings: post-emergence, 336 h, 14 days after application, read-out: Visual Growth Reduction (%) 14 Days After Application ABUTH; for pest or weed control at 17.5 g/ha: 17.5 g ai/ha; for pest or weed control at 35 g/ha: 35 g ai/ha; for pest or weed control at 70 g/ha: 70 g ai/ha; for pest or weed control at 140 g/ha: 140 g ai/ha
# How it was run: as §1
# [8] = test system: VIOTR: wild violet (Viola tricolor); assay: Post-emergent herbicidal test, wild violet; settings: post-emergence, 336 h, 14 days after application, read-out: Visual Growth Reduction (%) 14 Days After Application VIOTR; for pest or weed control at 17.5 g/ha: 17.5 g ai/ha; for pest or weed control at 35 g/ha: 35 g ai/ha; for pest or weed control at 70 g/ha: 70 g ai/ha; for pest or weed control at 140 g/ha: 140 g ai/ha
# How it was run: as §1
# [9] = test system: EPHHL: wild poinsettia (Euphorbia heterophylla); assay: Post-emergent herbicidal test, wild poinsettia; settings: post-emergence, 336 h, 14 days after application, read-out: Visual Growth Reduction (%) 14 Days After Application EPHHL; for pest or weed control at 17.5 g/ha: 17.5 g ai/ha; for pest or weed control at 35 g/ha: 35 g ai/ha; for pest or weed control at 70 g/ha: 70 g ai/ha; for pest or weed control at 140 g/ha: 140 g ai/ha
# How it was run: as §1
# [10] = test system: DIGSA: large crabgrass (Digitaria sanguinalis); assay: Post-emergent herbicidal test, large crabgrass; settings: post-emergence, 336 h, 14 days after application, read-out: Visual Growth Reduction (%) 14 Days After Application DIGSA; for pest or weed control at 17.5 g/ha: 17.5 g ai/ha; for pest or weed control at 35 g/ha: 35 g ai/ha; for pest or weed control at 70 g/ha: 70 g ai/ha; for pest or weed control at 140 g/ha: 140 g ai/ha
# How it was run: as §1
# [11] = test system: SORVU: shattercane (Sorghum bicolor); assay: Post-emergent herbicidal test, shattercane; settings: post-emergence, 336 h, 14 days after application, read-out: Visual Growth Reduction (%) 14 Days After Application SORVU; for pest or weed control at 17.5 g/ha: 17.5 g ai/ha; for pest or weed control at 35 g/ha: 35 g ai/ha; for pest or weed control at 70 g/ha: 70 g ai/ha; for pest or weed control at 140 g/ha: 140 g ai/ha
# How it was run: as §1
smiles,measurement,setting,value
C#CCOC(=O)c1nc(-c2ccc(Cl)c3c2OCO3)c(F)c(N)c1Cl [Compound 1C],pest or weed control at 17.5 g/ha,[1],30%
same,pest or weed control at 35 g/ha,[1],80%
same,pest or weed control at 70 g/ha,[1],85%
same,pest or weed control at 140 g/ha,[1],80%
same,pest or weed control at 17.5 g/ha,[2],0%
same,pest or weed control at 35 g/ha,[2],0%
same,pest or weed control at 70 g/ha,[2],0%
same,pest or weed control at 140 g/ha,[2],0%
same,pest or weed control at 17.5 g/ha,[3],95%
same,pest or weed control at 35 g/ha,[3],97%
same,pest or weed control at 70 g/ha,[3],100%
same,pest or weed control at 140 g/ha,[3],100%
same,pest or weed control at 17.5 g/ha,[4],70%
same,pest or weed control at 35 g/ha,[4],85%
same,pest or weed control at 70 g/ha,[4],90%
same,pest or weed control at 140 g/ha,[4],90%
same,pest or weed control at 17.5 g/ha,[5],0%
same,pest or weed control at 35 g/ha,[5],0%
same,pest or weed control at 70 g/ha,[5],50%
same,pest or weed control at 140 g/ha,[5],60%
same,pest or weed control at 17.5 g/ha,[6],0%
same,pest or weed control at 35 g/ha,[6],0%
same,pest or weed control at 70 g/ha,[6],0%
same,pest or weed control at 140 g/ha,[6],10%
same,pest or weed control at 17.5 g/ha,[7],100%
same,pest or weed control at 35 g/ha,[7],100%
same,pest or weed control at 70 g/ha,[7],100%
same,pest or weed control at 140 g/ha,[7],100%
same,pest or weed control at 17.5 g/ha,[8],65%
same,pest or weed control at 35 g/ha,[8],65%
same,pest or weed control at 70 g/ha,[8],60%
same,pest or weed control at 140 g/ha,[8],65%
same,pest or weed control at 17.5 g/ha,[9],10%
same,pest or weed control at 35 g/ha,[9],10%
same,pest or weed control at 70 g/ha,[9],10%
same,pest or weed control at 140 g/ha,[9],25%
same,pest or weed control at 17.5 g/ha,[10],0%
same,pest or weed control at 35 g/ha,[10],0%
same,pest or weed control at 70 g/ha,[10],0%
same,pest or weed control at 140 g/ha,[10],60%
same,pest or weed control at 17.5 g/ha,[11],10%
same,pest or weed control at 35 g/ha,[11],50%
same,pest or weed control at 70 g/ha,[11],70%
same,pest or weed control at 140 g/ha,[11],70%
COC(=O)c1nc(-c2cccc3c2OCO3)c(F)c(N)c1Cl [Compound 2],pest or weed control at 17.5 g/ha,[1],0%
same,pest or weed control at 35 g/ha,[1],0%
same,pest or weed control at 70 g/ha,[1],10%
same,pest or weed control at 140 g/ha,[1],30%
same,pest or weed control at 17.5 g/ha,[2],0%
same,pest or weed control at 35 g/ha,[2],0%
same,pest or weed control at 70 g/ha,[2],0%
same,pest or weed control at 140 g/ha,[2],0%
same,pest or weed control at 17.5 g/ha,[3],30%
same,pest or weed control at 35 g/ha,[3],40%
same,pest or weed control at 70 g/ha,[3],85%
same,pest or weed control at 140 g/ha,[3],90%
same,pest or weed control at 17.5 g/ha,[4],60%
same,pest or weed control at 35 g/ha,[4],100%
same,pest or weed control at 70 g/ha,[4],98%
same,pest or weed control at 140 g/ha,[4],98%
same,pest or weed control at 17.5 g/ha,[5],0%
same,pest or weed control at 35 g/ha,[5],0%
same,pest or weed control at 70 g/ha,[5],0%
same,pest or weed control at 140 g/ha,[5],0%
same,pest or weed control at 17.5 g/ha,[6],0%
same,pest or weed control at 35 g/ha,[6],0%
same,pest or weed control at 70 g/ha,[6],10%
same,pest or weed control at 140 g/ha,[6],25%
same,pest or weed control at 17.5 g/ha,[7],50%
same,pest or weed control at 35 g/ha,[7],60%
same,pest or weed control at 70 g/ha,[7],75%
same,pest or weed control at 140 g/ha,[7],95%
same,pest or weed control at 17.5 g/ha,[8],0%
same,pest or weed control at 35 g/ha,[8],0%
same,pest or weed control at 70 g/ha,[8],0%
same,pest or weed control at 140 g/ha,[8],10%
same,pest or weed control at 17.5 g/ha,[9],0%
same,pest or weed control at 35 g/ha,[9],0%
same,pest or weed control at 70 g/ha,[9],0%
same,pest or weed control at 140 g/ha,[9],0%
same,pest or weed control at 17.5 g/ha,[10],0%
same,pest or weed control at 35 g/ha,[10],0%
same,pest or weed control at 70 g/ha,[10],0%
same,pest or weed control at 140 g/ha,[10],0%
same,pest or weed control at 17.5 g/ha,[11],0%
same,pest or weed control at 35 g/ha,[11],0%
same,pest or weed control at 70 g/ha,[11],0%
same,pest or weed control at 140 g/ha,[11],0%

# — patent publication US11718604B2, “4-amino-6-(1,3-benzodioxole)picolinates and their use as herbicides” (Dow AgroSciences LLC, priority 2018, dated 2023)
